The nature of this data set: gradient 5% acetonitrile 3 min, to 50% in 2 min, to 85% in 15 min, held 3 min, 100 µL/min. The conditions noted are these: column: Zorbax Extend-C18 2.1 x 50 mm; eluents: water / acetonitrile, 0.1% formic acid. A digest of the protocol: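 In both positive and negative ionization mode, a quadrupole time-of-flight mass spectrometer coupled to HPLC analyzed pure standards run in mixtures of ~100 molecules. The Zorbax Extend-C18 column (2.1 × 50 mm, 1.8 μm) was operated at 100 μL/min with water and acetonitrile, each containing 0.1% formic acid. The dead volume was 40 μL and the dwell volume 900 μL. Retention time came from adduct peaks that were computationally picked and individually inspected by hand.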
As to `CCc1cc(=O)n(CC(=O)NCc2ccc(F)cc2)c(N)n1`, the RP-LC retention time worked out at 793 s. Then `Fc1ccc(-c2noc(Cc3nc(-c4ccc(Br)cc4)cs3)n2)cc1`, with 1340 s; and `C=CC(=O)Nc1cc2c(Nc3ccc(F)c(Cl)c3)ncnc2cc1OCCCN1CCOCC1`, with 630 s; and `CC(Oc1cccc2ccccc12)c1nc2c3ccccc3ncn2n1` (stereo not drawn), with 1090 s.

As to `Cc1oc(C2CCN(S(=O)(=O)c3cccc(C#N)c3)CC2)nc1C(=O)N1CCOCC1`, the RP-LC retention time stood at 734 s.

With `Cc1cc(C)c2c(-n3cccc3)nn(CC(=O)NC3CCCCCC3)c2n1`, the RP-LC retention time amounted to 1050 s. `COc1ccc(C(=O)c2cn(CC(=O)c3ccc(Cl)cc3)c3nc(C)ccc3c2=O)cc1` yielded an RP-LC retention time of 1010 s. Regarding `O=C(Cn1c(=O)c2cc(C3CC3)nn2c2ncccc21)NC1CCCC1`, the RP-LC retention time came to 705 s.

The compound `CCn1ccc2sc(C)c(C(=O)NCc3cc(F)ccc3F)c2c1=O` yielded an RP-LC retention time of 835 s. Regarding `CCOCCCNC(=O)CN1C(=O)CCCc2ccccc21`, the RP-LC retention time stood at 681 s. The figure for `N#Cc1nc(-c2ccco2)oc1N1CCN(C(=O)c2ccccc2F)CC1` is 770 s; for `CCc1ccc(-n2ncc3c(=O)n(Cc4nc(-c5ccccc5)no4)cnc32)cc1` it is 1160 s; for `CC(=O)Nc1ccc(NC(=O)c2cc3sccc3n2Cc2ccc(Cl)cc2)cc1` it is 965 s. With `Cc1cnc(C2CN(C(=O)c3ccnn3C)C2)n1CC1CC1`, the RP-LC retention time was 568 s. `COC1C(=O)N(c2cccc(F)c2)C12CCN(Cc1cn(C)c3ccccc13)CC2` (stereo not drawn) yielded an RP-LC retention time of 751 s. In turn, `O=C1CCCc2nc(Nc3nc(-c4ccccc4)c4cc(Cl)ccc4n3)ncc21` yielded an RP-LC retention time of 922 s.

`COc1ccc(-c2cn3cccnc3n2)cc1NC(=O)c1ccc(C(F)(F)F)cc1` came in with an RP-LC retention time of 778 s.

With `O=C(C1CCC1)N1[C@H]2CC[C@@H]1c1cnc(-c3ccc(F)cc3)nc1C2`, the RP-LC retention time was 955 s. Turning to `CC(C)c1ccc(Nc2nc3ccncc3n(C(C)C)c2=O)cc1`, the RP-LC retention time stood at 774 s. With `CCOC(=O)CC(=O)N1CCSC1COc1ccccc1OC` (stereo not drawn), the RP-LC retention time came to 903 s. Then `O=C(CSc1ncccn1)N1CCCC1`, with 591 s.

`CCc1ccc(CNC(=O)C2CCN(c3cncnc3N3CCOCC3)CC2)cc1` returned an RP-LC retention time of 666 s. With `CCOC(=O)C1CCN(S(=O)(=O)c2ccc3onc(C(=O)N4CCCC4)c3c2)CC1`, the RP-LC retention time was determined as 993 s. The compound `Cc1ccc(N2C(=O)CN(S(=O)(=O)c3ccccc3)CC2(C)C(=O)NCc2ccc(F)cc2)cc1` (stereo not drawn) came in with an RP-LC retention time of 875 s. For `COC(=O)c1c(C)[nH]c(C(=O)N2CCCC(C(=O)NCc3ccc(Cl)cc3)C2)c1C` (stereo not drawn), the RP-LC retention time is 809 s. The figure for `O=C(Nc1cccc(-c2ccc(N3CCCC3)nn2)c1)c1ccccc1F` is 647 s; for `Cc1ccc(C)c(Nc2c(-c3ccc(N4CCOCC4)cc3)nc3ncccn23)c1` it is 746 s; for `Cc1nn(-c2nc(-c3ccccc3)cs2)c(C)c1CC(=O)Nc1ccccc1Cl` it is 1220 s. Compound `CC1Cc2cc(S(=O)(=O)N3CCC(C(N)=O)(N4CCCCC4)CC3)ccc2N1C(=O)C1CC1` (stereo not drawn) returned an RP-LC retention time of 630 s. For the compound `COC(=O)c1cc(S(=O)(=O)N2CCCC2C(=O)Nc2cc(F)ccc2F)cn1C` (stereo not drawn), the RP-LC retention time came to 911 s.

`CC(=O)Nc1onc(C)c1-c1ccc(C)c(S(=O)(=O)N2CCN(c3ccccn3)CC2)c1`: the RP-LC retention time was 628 s. The figure for `CCCCCNC(=O)CCc1nnc2c3cc(-c4ccc(C)c(C)c4)nn3ccn12` is 872 s; for `CC(C)N1CCn2cc(S(=O)(=O)Nc3ccc(F)cc3)cc2C1=O` it is 757 s. The compound `O=c1c2cc3c(cc2nc(SCc2nc(-c4ccccc4)no2)n1Cc1ccncc1)OCO3` returned an RP-LC retention time of 776 s. Then `O=C(CCc1nc(-c2ccc(N3CCCC3)cc2)no1)NCCC1=CCCCC1`, with 1170 s; and `Cc1ccc(CNC(=O)C2(c3ccc(NC(=O)C(C)C)cc3)CCC2)cc1C`, with 936 s. Then `Cc1ccc(S(=O)(=O)N2CCCCC2)cc1-c1nnc(-c2ccccc2Cl)o1`, with 1160 s. `O=C1NCCCCCCN(C(=O)C2CCCCC2)[C@H]2C[C@H](C(=O)N3CCc4ccccc4C3)C[C@@H]12` gave an RP-LC retention time of 924 s.

For the compound `O=S1(=O)N=CN(c2ccc(F)cc2)c2ncccc21`, the RP-LC retention time worked out at 738 s.

The compound `COc1ccc(CC(=O)N2CCCC2c2cc(C)on2)cc1OC` (stereo not drawn) returned an RP-LC retention time of 716 s. In the case of `CCOC(=O)c1ccc(NC(=O)c2ccc3c(c2)N(CC)C2CCCCN2C3=O)cc1` (stereo not drawn), the RP-LC retention time was 957 s. In turn, `CC12CC(NC(=O)N1c1cccc(C(=O)NCc3ccccn3)c1)c1cc(Cl)ccc1O2` (stereo not drawn) registered an RP-LC retention time of 647 s. Then `COCCSc1nnc(NC(=O)C2CCN(C(=O)c3ccccc3Cl)CC2)s1`, with 743 s; and `Cc1c(Cl)cccc1NC(=O)NCC(c1cccnc1)c1c[nH]c2ccccc12` (stereo not drawn), with 706 s; and `O=C(CSc1nnnn1-c1ccccc1)c1ccc(Cl)c(Cl)c1`, with 1060 s.

Turning to `Cn1cccc1C(=O)N1C[C@H]2C[C@H](C1)[C@H]1CCCC(=O)N1C2`, the RP-LC retention time turned out to be 639 s. `CCNc1cc(N2CCCC(CCC(=O)NCCN3CCN(C)CC3)C2)ncn1` (stereo not drawn): the RP-LC retention time amounted to 541 s. The figure for `CC(NC(=O)c1cc(-c2ccc(F)cc2)cn1C)c1cccnc1` (stereo not drawn) is 680 s; for `Cc1sc(-c2noc(C(C)C)n2)cc1S(=O)(=O)N1CCC(C(=O)NCc2ccco2)CC1` it is 992 s. The figure for `COc1ccc2c(c1)c(CC(=O)O)c(C)n2Cc1ccc(Cl)cc1` is 1060 s. The figure for `O=C(CCc1nnc2c3cc(-c4ccc(F)cc4)nn3ccn12)NCc1ccc(Cl)cc1` is 822 s. On to `Cc1ccccc1Cn1c(CN2CCC(C(=O)NCCC3=CCCCC3)CC2)cc2ccccc21`, for which the RP-LC retention time amounted to 928 s. The figure for `COc1ccc(-c2noc(Cn3c(=O)n(C(C)C)c(=O)c4ccccc43)n2)cc1` is 1110 s; for `Cc1ccccc1NC(=O)c1cn(CC2CCCO2)cc2c(=O)n(-c3ccccc3)nc1-2` (stereo not drawn) it is 943 s; for `CCOC(=O)C1CCN(C(=O)C2CCCN(S(=O)(=O)c3ccc(OC)c(Cl)c3)C2)CC1` (stereo not drawn) it is 940 s. Then `Cc1ccn2c(NC(=O)c3cc(Br)ccc3Cl)c(-c3ccccc3)nc2c1`, with 735 s. The compound `CCc1nc(-c2cccc(C)c2)c(-c2ccnc(NC(=O)c3ccccc3)c2)s1` came in with an RP-LC retention time of 1200 s.

As to `CCn1nnc2cc(-c3noc(C(C)NS(=O)(=O)c4ccc(C)cc4)n3)ccc21` (stereo not drawn), the RP-LC retention time is 846 s.

For the origin of these results see the METLIN SMRT retention time set (Domingo-Almenara et al. 2019).
